In patent US9700056B2:

Experiments:
[1] = tested on: Alternaria solani; experiment: Alternaria test (tomatoes)/preventive; details: Table C, preventive, application rate 50 ppm a.i., evaluated 3 days after inoculation
Protocol: After the spray coating has dried on, the plants are inoculated with an aqueous spore suspension of Alternaria solani. The plants are then placed in an incubation cabinet at approximately 20° C. and a relative atmospheric humidity of 100%.
The test is evaluated 3 days after the inoculation.

[2] = tested on: Sphaerotheca fuliginea; experiment: Sphaerotheca test (cucumbers)/preventive; details: evaluated 7 days after inoculation
Protocol: After the spray coating has dried on, the plants are inoculated with an aqueous spore suspension of Sphaerotheca fuliginea. The plants are then placed in a greenhouse at approximately 23° C. and a relative atmospheric humidity of approximately 70%.
The test is evaluated 7 days after the inoculation.

[3] = tested on: Venturia inaequalis; experiment: Venturia test (apples)/preventive; details: Table A, preventive, evaluated 10 days after inoculation
Protocol: After the spray coating has dried on, the plants are inoculated with an aqueous conidia suspension of the causal agent of apple scab (Venturia inaequalis) and then remain for 1 day in an incubation cabinet at approximately 20° C. and a relative atmospheric humidity of 100%.
The plants are then placed in a greenhouse at approximately 21° C. and a relative atmospheric humidity of approximately 90%.
The test is evaluated 10 days after the inoculation.

[4] = tested on: Botrytis cinerea; experiment: Botrytis test (beans)/preventive; details: Table D, preventive, application rate 10 ppm a.i., size of lesions 2 days after inoculation
Protocol: After the spray coating has dried on, 2 small pieces of agar covered with growth of Botrytis cinerea are placed on each leaf. The inoculated plants are placed in a darkened chamber at 20° C. and a relative atmospheric humidity of 100%.
2 days after the inoculation, the size of the lesions on the leaves is evaluated.

[5] = Table B1, preventive, application rate 100 ppm a.i.
[6] = Table B2, preventive, application rate 2 ppm a.i.

Row | SMILES | Efficacy in % found [1] | Efficacy in % found [2, 5] | Efficacy in % found [2, 6] | other results
1 | CCCN(CC)CC1COC2(CCC(C(C)(C)C)CC2)O1 (stereo not shown) [F46 spiroxamine, spiroxamine] | 62% | 38% | – | –
2 | CC(C)(C)C(O)(CCc1ccc(Cl)cc1)Cn1cncn1 (stereo not shown) [F47 tebuconazole, tebuconazole] | – | – | 29% | Efficacy in % found ([3]; application rate 2 ppm a.i.): 13%
3 | OC(Cc1ccccc1Cl)(Cn1nc[nH]c1=S)C1(Cl)CC1 (stereo not shown) [F41 prothioconazole, prothioconazole] | – | – | 38% | –
4 | CC1(C(=O)Nc2ccc(O)c(Cl)c2Cl)CCCCC1 [F16 fenhexamid, fenhexamid] | 43% | 33% | – | Efficacy in % found [4]: 88%
5 | CC1COC(Cn2cncn2)(c2ccc(Oc3ccc(Cl)cc3)cc2Cl)O1 (stereo not shown) [F7 difenoconazole, difenoconazole] | – | – | 0% | Efficacy in % found ([3]; application rate 1 ppm a.i.): 20%
